Among the data in ChEMBL document CHEMBL1201862, “PubChem BioAssay data set” (2004) are IC50, EC50 and AC50 values, retold here.

Where “and” joins values, the source holds several entries; their conditions need not be identical. Equal values may be shown once. Calls of active or inactive are those of the source. For most assays here, no stated cut-off is given here; in the data, actives have a measured EC50 and inactives only a lower limit.

The subject of assay [1] is H9c2. Briefly: cells. Type of assay: functional, cell-based. To be noted: Rattus norvegicus, H9c2, Myocardium.
Assay [2] in a line: Luminescence Cell-Based Dose Response HTS to Identify Activators of Luciferase Translation or Activity in H4 […] Cells. [Related pubchem assays: 1829 (Project Summary), 1814 (Primary HTS)]. Type of assay: functional.
Assay [3] in a line: Luminescence Cell-Based Dose Confirmation HTS to Identify Activators of 5'UTR Stem-Loop Driven Alpha-Synuclein mRNA Translation in H4 Neuroglioblastoma Cells. [Related pubchem assays: 1829 (Project Summary), 1814 (Primary HTS)]. The class given is functional.
Assay [4] deals with H4. Kind of assay: Luminescence Cell-Based Dose Response HTS to Identify Activators of 5'UTR Stem-Loop Driven Prion Protein mRNA Translation in H4 Neuroglioblastoma Cells. [Related pubchem assays: 1829 (Project Summary), 1814 (Primary HTS)]. Type of assay: functional. The note with it: Homo sapiens.
Assay [5] is described as follows: P. falciparum Dd2 growth inhibitors, dose response, SYBR Green, cherry-picked samples (AID 1159567). Type of assay: functional, cell-based.
Assay [6] can be described thus: Luminescence Cell-Based Dose Confirmation HTS to Identify Inhibitors of Platelet Dense Granule Release. [Related pubchem assays: 1663 (Primary HTS), 1678 (Summary of Project)]. The class given is functional.
Assay [7] addresses Luciferin 4-monooxygenase (Photinus pyralis, UniProt P08659). Briefly: firefly luciferase enzyme inhibitors, dose response, biochemical, luminescence (AID 1891).
The nature of assay [8]: inhibitors of firefly luciferase expression or activity, dose response, H4 neuroglioma cells, luminescence (AID 1990). Type of assay: functional, cell-based.
Assay [9] can be described thus: NIH-3T3 fibroblast cytotoxicity, dose response, cytotoxicity control, cell-based, fluorescence, Alamar Blue, secondary assay (AID 2327).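 Further: NIH-3T3 mouse fibroblasts cultured with fluconazole at 8 µg/mL.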 The class given is functional. (In general: Resazurin is reduced to fluorescent resorufin, in cell work by metabolically active cells.)
Assay [10] is described as follows: C. albicans growth with fluconazole, confirmation, fluorescence, retest (AID 2467). The class given is functional, cell-based.
The target of assay [11] is T1, Streptokinase A (Streptococcus pyogenes serotype M1, UniProt P10520).
T1 sequence (P10520 whole entry): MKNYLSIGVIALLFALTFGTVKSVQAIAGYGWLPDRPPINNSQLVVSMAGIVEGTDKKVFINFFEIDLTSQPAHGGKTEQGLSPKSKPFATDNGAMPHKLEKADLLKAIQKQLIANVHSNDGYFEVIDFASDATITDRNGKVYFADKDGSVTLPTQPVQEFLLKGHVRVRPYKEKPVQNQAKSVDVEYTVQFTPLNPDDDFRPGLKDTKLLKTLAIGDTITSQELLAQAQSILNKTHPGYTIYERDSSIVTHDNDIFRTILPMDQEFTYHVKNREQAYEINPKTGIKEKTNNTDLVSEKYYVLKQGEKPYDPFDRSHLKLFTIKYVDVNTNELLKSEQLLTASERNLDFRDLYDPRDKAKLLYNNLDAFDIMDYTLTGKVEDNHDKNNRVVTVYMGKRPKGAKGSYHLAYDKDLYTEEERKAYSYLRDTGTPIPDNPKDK
Kind of assay: S. pyogenes streptokinase expression inhibitors, potency, dose response, plasminogen activation absorbance, OD405 (AID 1914).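 Further: secreted streptokinase activity via plasminogen activation per viability signal from cell pellet.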 The class given is functional, Streptococcus pyogenes M1 GAS.

Assay [12] has as its system Streptococcus. Kind of assay: Group A Streptococcus viability loss, dose response, counter-screen for streptokinase expression inhibitor project, luminescence, BacTiterGlo (AID 1915).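 Further: potency for reduction of bacterial viability or growth.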 The class given is functional, organism-based. A general note: Counterscreens check selectivity or assay interference.
The subject of assay [13] is Streptococcus sp. 'group A'. Briefly: growth inhibition of control SK(-) GAS strain, dose response, counter-screen for streptokinase expression inhibitor project, luminescence, kanamycin, BacTiterGlo, confirmation (AID 1900). Type of assay: functional, organism-based.
The target in assay [14] is Cytochrome P450 2C9 (Homo sapiens, UniProt P11712).
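Wherever IC50 is given: confirmatory concentration-response retest of ultra-high-throughput screening hits for modulation of myocardial damage; cell death induced by hydrogen peroxide oxidative stress; compound pretreatment for 60 min then peroxide exposure for 2 h; potency is for protecting the cells against peroxide damage rather than for killing them.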

Luciferin 4-monooxygenase, sequence (P08659 whole entry): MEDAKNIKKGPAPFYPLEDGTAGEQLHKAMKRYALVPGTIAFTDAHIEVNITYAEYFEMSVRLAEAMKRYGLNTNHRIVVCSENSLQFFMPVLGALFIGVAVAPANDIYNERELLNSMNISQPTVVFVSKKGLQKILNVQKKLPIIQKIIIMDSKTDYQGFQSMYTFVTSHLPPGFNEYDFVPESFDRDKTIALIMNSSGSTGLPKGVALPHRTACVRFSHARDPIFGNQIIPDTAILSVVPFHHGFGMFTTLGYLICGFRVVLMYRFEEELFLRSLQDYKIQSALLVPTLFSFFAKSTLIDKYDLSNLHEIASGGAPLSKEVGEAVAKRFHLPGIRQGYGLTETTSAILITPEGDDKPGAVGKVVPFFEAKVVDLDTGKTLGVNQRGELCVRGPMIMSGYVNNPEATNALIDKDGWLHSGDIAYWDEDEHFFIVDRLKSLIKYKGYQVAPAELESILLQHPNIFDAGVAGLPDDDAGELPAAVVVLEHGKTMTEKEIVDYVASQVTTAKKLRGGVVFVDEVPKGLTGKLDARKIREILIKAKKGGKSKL
Cytochrome P450 2C9, sequence (P11712 whole entry): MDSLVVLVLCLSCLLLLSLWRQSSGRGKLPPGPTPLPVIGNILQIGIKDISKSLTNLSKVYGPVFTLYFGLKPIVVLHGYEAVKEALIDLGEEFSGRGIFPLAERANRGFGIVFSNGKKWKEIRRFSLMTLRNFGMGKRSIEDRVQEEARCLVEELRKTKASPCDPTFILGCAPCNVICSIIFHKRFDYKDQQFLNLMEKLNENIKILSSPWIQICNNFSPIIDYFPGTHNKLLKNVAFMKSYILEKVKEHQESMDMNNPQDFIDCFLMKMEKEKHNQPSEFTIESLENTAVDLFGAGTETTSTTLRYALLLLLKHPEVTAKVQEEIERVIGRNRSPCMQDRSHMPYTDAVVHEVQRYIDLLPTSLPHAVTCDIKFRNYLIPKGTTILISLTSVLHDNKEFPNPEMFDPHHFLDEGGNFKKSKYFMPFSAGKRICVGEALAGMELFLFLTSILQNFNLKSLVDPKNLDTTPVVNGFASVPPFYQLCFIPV

The IC50 is the point on the concentration scale where inhibition reaches its midpoint. As to `COc1ccc(CN(C)C(=O)C(Cc2ccccc2)NC(=O)c2ccccc2)cc1F` (centres undefined), the IC50 in assay [1] was > 79 µM (inactive).

The term EC50 denotes the concentration at which the effect is half-maximal. As to `CSc1nnc2c(n1)c(C)nn2-c1ccc(C)cc1`, the figures for the EC50 in [2], in assay [3] and in [4] were 16.1 µM (active), 0.114 µM (active) and 4.22 µM (active), respectively.

One may read the AC50 as the concentration at which the activity in the assay is half-maximal. On to `COc1ccc(NC(=O)N(C)C[C@H]2OCc3ccccc3-c3c(n(C)c4ccccc34)C(=O)N([C@H](C)CO)C[C@@H]2C)c(OC)c1`, for which the AC50 in assay [5] was 7.42 µM (active).

Take `COc1ccc2nc(O)c(CN(CCc3ccccc3)Cc3nnnn3CC3CCCO3)cc2c1` (centres undefined): the IC50 in assay [1] was 14.6 µM (active).

For the compound `Cc1[nH]c2ccccc2c1C(Nc1nccs1)c1ccncc1` (centres undefined), the EC50 in assay [6] is 14.6 µM (active); in assay [7] it was > 112 µM (not active).

Consider `CCc1nc(NC(C)C)c2oc3ccccc3c2n1`, for which the EC50 in assay [6] and in assay [7] was > 112 µM (not active) in each case.

For the compound `N#C/C(=C\c1ccc(Cl)cc1)c1nc2ccc[nH]c-2n1`, the EC50 in assay [2] was 14 µM (active); in [3], > 120 µM (not active); in [4], 44 µM (active).

For `CCCOc1ccc(C2=NNC(=O)CC2)cc1`, the EC50 in [8] was < 100 nM (active).

Consider `O=C(COc1ccccc1F)Nc1nc(-c2ccccn2)cs1`, for which, in assay [1], the IC50 is > 79 µM (inactive).

Take `C=CCn1c[n+](CC(=O)c2ccc(Br)s2)c2ccccc21`: the EC50 in assay [9] is > 160 µM (inactive); in assay [10], > 38 µM (not active).

`COc1ccccc1-c1nnc(NC(=O)c2ccc(S(=O)(=O)N(C)CC3CCCO3)cc2)o1` (centres undefined): the EC50 is > 150 µM (not active) in assay [11], 78.9 µM (active) in [12] (Streptococcus) and 19.5 µM (active) in assay [13] (Streptococcus sp. 'group A').

As to `O=C(N/N=C/c1ccncc1)c1ccc(COc2cccc3cccnc23)cc1`, the IC50 in assay [1] is 14.3 µM (active).

As to `O=c1c2ccccc2nc(-c2ccco2)n1Cc1ccccc1`, the EC50 is 8.08 µM (active) in [2] and 34.1 µM (active) in assay [3].

For `COc1ccc(Nc2nc(NN)nc(Nc3ccc(OC)cc3)n2)cc1`, the values for the EC50 in [11], in [12] (Streptococcus) and in assay [13] (Streptococcus sp. 'group A') were > 150 µM (not active), > 150 µM (not active) and 11.3 µM (active), respectively.

`CCC1SC(NC(=O)NC2CCCCC2)=NC1=O` (centres undefined): the EC50 in assay [2] was 27.5 µM (active); in [3], 15.8 µM (active); in assay [4], 0.115 µM (active).

In the case of `CC1CCN(CCCNC(=O)c2nnc(O)c3ccccc23)CC1`, the IC50 in assay [1] was 48.9 µM (inactive).

Turning to `C=CCN1c2ccccc2[C@]23C[C@@H](C(=O)OC)N(C(=O)c4cc(C)oc4C)C2=NC(C(=O)OC)=C(C(=O)OC)[C@H]13`, the EC50 in [2] is > 120 µM (not active); in assay [3] it was 9.07 µM (active); in [4], > 120 µM (not active).

As for `NC(=NOC(=O)c1ccccc1Cl)c1nonc1N`, the EC50 was 4.54 µM (active) in assay [6] and 1.11 µM (active) in assay [7].

As to `Clc1ccccc1Nc1ncnc(-n2cccc2)n1`, the EC50 in assay [2] is 1.7 µM (active); in [3], 0.153 µM (active); in assay [4], 6.97 µM (active).

Turning to `O=C(c1ccccc1)N1CCN(CC#Cc2ccccc2)CC1`, the EC50 was 9.34 µM (active) in [2], 8.44 µM (active) in [3] and 6.67 µM (active) in assay [4].

Turning to `O=C(NCCSc1ccccc1)c1cncc(Br)c1`, the EC50 in [2] is 5.57 µM (active); in assay [3] it was 30.1 µM (active); in assay [4], 9.26 µM (active).

As to `Cc1nnc(NC(=O)c2c(-c3ccccc3Cl)noc2C)s1`, the concentration giving a half-maximal response (EC50) in [9] is 32.1 µM (active); in [10], 4.42 µM (active).

On to `CN(C)S(=O)(=O)c1cccc(NC(=O)COC(=O)c2ccc([N+](=O)[O-])o2)c1`, for which, in assay [1], the 50% inhibitory concentration (IC50) was 10.3 µM (active).

As to `Cc1ccc(C2NC(=O)c3ccccc3N2)s1` (centres undefined), the figures for the EC50 in assay [2], in [3] and in assay [4] were 10.5 µM (active), > 120 µM (not active) and 11.8 µM (active), respectively.

As for `O=C(c1ccc2c(c1)OCO2)N1CCC2(CC1)Oc1ccc(Cl)cc1C(=O)C21CC(c2cccnc2)=NO1` (centres undefined), the EC50 in assay [9] is > 150 µM (inactive); in assay [10], 2.08 µM (active).

As for `CSc1ccc(C2c3[nH]c4ccccc4c3CCN2C(=O)c2ccnn2C)cc1` (centres undefined), the EC50 was > 150 µM (inactive) in [9] and 2.7 µM (active) in assay [10].

As for `Cc1nn2c(nc(O)c3ccccc32)c1C=O`, the EC50 in assay [9] was > 160 µM (inactive); in assay [10], 2.16 µM (active). In addition, the AC50 in assay [14] was 15.8 µM (inconclusive).

With `CCOC(=O)[C@@H]1[C@H]2COc3ccccc3[C@H]2N2C(=O)N(c3ccc(C(F)(F)F)cc3)C(=O)[C@]12C`, the EC50 was 17 µM (inconclusive) in [11], > 150 µM (not active) in assay [12] (Streptococcus) and 9.78 µM (active) in assay [13] (Streptococcus sp. 'group A').

For `CO[C@@H]1CN(C)C(=O)c2cc(NC(=O)Nc3cccc(Cl)c3)ccc2OC[C@@H](C)NC[C@@H]1C`, in [5], the concentration at half-maximal activity (AC50) is 9.36 µM (active).

As for `CCCCc1c(C)nn(-c2nnc3c4ccccc4n(C)c3n2)c1C`, the EC50 was 5.26 µM (active) in assay [2], > 120 µM (not active) in assay [3] and 15.8 µM (active) in assay [4].

For `COc1ccc2nc(O)c(CN(Cc3ccco3)Cc3nnnn3Cc3ccccc3)cc2c1`, the IC50 in assay [1] is > 79 µM (inactive).

With `Cc1cccc(NC2=NN=C(c3c(C)[nH]c4ccccc34)CS2)c1`, the values for the EC50 in [11], in assay [12] (Streptococcus) and in assay [13] (Streptococcus sp. 'group A') were > 150 µM (not active), 6.58 µM (active) and 3.91 µM (active), respectively.

For the compound `COc1ccc(S(=O)(=O)N[C@@H]2CC[C@H](CCn3cc(-c4ccccc4F)nn3)O[C@@H]2CO)cc1`, the AC50 in assay [5] is 8.67 µM (active).

On to `O=C(Nc1cccc(-c2ccc(N3CCOCC3)nn2)c1)c1ccccc1Cl`, for which the 50% effective concentration (EC50) in [11], in [12] (Streptococcus) and in assay [13] (Streptococcus sp. 'group A') was > 150 µM (not active) throughout.

`Cc1ccc2occ(/C=N/NC(=O)c3ccccc3O)c(=O)c2c1`: the EC50 was > 150 µM (inconclusive) in assay [9] and > 38 µM (not active) in assay [10].

Consider `C/C(=N\NC(=O)c1cccnc1)c1ccc(OC2OCCOC2Oc2ccc(/C(C)=N/NC(=O)c3cccnc3)cc2)cc1` (centres undefined), for which, in assay [1], the IC50 was > 79 µM (inactive).

For the compound `O=C1CN(S(=O)(=O)c2ccccc2)C[C@H]2[C@H](c3ccc(C#CCc4ccccc4)cc3)[C@@H](CO)N12`, the AC50 in assay [5] was 4.06 µM (active).

Take `CCOC(=O)c1sc2ncnc(NCC(c3cccs3)N(C)C)c2c1C` (centres undefined): the EC50 in [11] was > 150 µM (not active); in [12] (Streptococcus), 50.8 µM (active); in assay [13] (Streptococcus sp. 'group A') it was 7.15 µM (active).

`COc1ccc(-n2c(S)nnc2-c2cccc(C)c2[N+](=O)[O-])cc1`: the EC50 in assay [9] was > 150 µM (inactive); in assay [10], 1.7 µM (active).

Turning to `Cc1ccc(C(O)(C(=O)NNc2ccc3ccccc3n2)c2ccc(C)cc2)cc1`, the EC50 in assay [11] was > 150 µM (not active) and 8.85 µM (active); in assay [12], 10.9 µM (active); in assay [12] (Streptococcus), 12.1 µM (active); in assay [13], 2.55 µM (active); in assay [13] (Streptococcus sp. 'group A'), 3.72 µM (active).

Consider `COc1cccc(NC(=O)CN(C)C(=O)CCCc2nc(O)c3ccccc3n2)c1`, for which, in [1], the IC50 was > 79 µM (inactive).

With `CC1CCN(C(=O)COC(=O)c2nnc(O)c3ccccc23)CC1`, the IC50 in assay [1] is > 79 µM (inactive).

On to `Cc1nn(-c2ccccc2)c(C)c1/C=N/NC(=O)c1cc(C2CC2)[nH]n1`, for which, in [1], the IC50 was > 79 µM (inactive).

As to `COc1ccc2c3c([nH]c2c1)[C@@H](CO)N(Cc1ccccc1F)CC31CCN(C(=O)C2CCOCC2)CC1`, the concentration at half-maximal activity (AC50) in [5] is 6.46 µM (active).

Turning to `COc1ccc(OC)c(NC(=O)NC2CCCc3ccccc32)c1` (centres undefined), the EC50 in [11], in assay [12] (Streptococcus) and in [13] (Streptococcus sp. 'group A') was > 150 µM (not active) throughout.

With `NC(=O)N1CCC2(CC1)NC(=O)N(c1ccccc1)N2`, the EC50 in [9] is > 150 µM (inconclusive).
